This is an account of results in PubChem BioAssay AID1259407 (Chemical Carcinogenesis Research Information System (CCRIS), 2018).

The test system of this series is CCRIS mutagenicity, Ames/micronucleus/aberration tests. In words: CCRIS mutagenicity studies.
[1] abbreviates: Test System: AMES SALMONELLA TYPHIMURIUM, Strain/Indicator: TA98, Metabolic Activation: NONE, Method: STANDARD PLATE.
Setting [2] is: Test System: AMES SALMONELLA TYPHIMURIUM, Strain/Indicator: TA100, Metabolic Activation: NONE, Method: STANDARD PLATE.

Each structure is given as a SMILES string. The source made the active and inactive calls. How the calls were made is not given here.

On to `CCCCC(CC)COC(=O)c1ccc(C(=O)OCC(CC)CCCC)c(C(=O)OCC(CC)CCCC)c1` (stereo not given), for which the mutagenic call (Test System: AMES SALMONELLA TYPHIMURIUM, Strain/Indicator: TA97, Metabolic Activation: HAMSTER, LIVER, S-9, AROCLOR 1254 (10 OR 30%), Method: PREINCUBATION) is “inactive; negative”; the mutagenic call (Test System: AMES SALMONELLA TYPHIMURIUM, Strain/Indicator: TA97, Metabolic Activation: NONE, Method: PREINCUBATION) was “inactive; negative”; the mutagenic call (Test System: AMES SALMONELLA TYPHIMURIUM, Strain/Indicator: TA97, Metabolic Activation: RAT, LIVER, S-9, AROCLOR 1254 (10 OR 30%), Method: PREINCUBATION) is “inactive; negative”; the mutagenic call (Test System: AMES SALMONELLA TYPHIMURIUM, Strain/Indicator: TA98, Metabolic Activation: HAMSTER, LIVER, S-9, AROCLOR 1254 (10 OR 30%), Method: PREINCUBATION) was “inactive; negative”; the mutagenic call (Test System: AMES SALMONELLA TYPHIMURIUM, Strain/Indicator: TA98, Metabolic Activation: NONE, Method: PREINCUBATION) was “inactive; negative”; the mutagenic call (Test System: AMES SALMONELLA TYPHIMURIUM, Strain/Indicator: TA98, Metabolic Activation: RAT, LIVER, S-9, AROCLOR 1254 (10 OR 30%), Method: PREINCUBATION) is “inactive; negative”. Also, the mutagenic call runs as follows: (Test System: AMES SALMONELLA TYPHIMURIUM, Strain/Indicator: TA100, Metabolic Activation: HAMSTER, LIVER, S-9, AROCLOR 1254 (10 OR 30%), Method: PREINCUBATION) “inactive; negative”; (Test System: AMES SALMONELLA TYPHIMURIUM, Strain/Indicator: TA100, Metabolic Activation: NONE, Method: PREINCUBATION) “inactive; negative”; (Test System: AMES SALMONELLA TYPHIMURIUM, Strain/Indicator: TA100, Metabolic Activation: RAT, LIVER, S-9, AROCLOR 1254 (10 OR 30%), Method: PREINCUBATION) “inactive; negative”; (Test System: AMES SALMONELLA TYPHIMURIUM, Strain/Indicator: TA1535, Metabolic Activation: HAMSTER, LIVER, S-9, AROCLOR 1254 (10 OR 30%), Method: PREINCUBATION) “inactive; negative”; (Test System: AMES SALMONELLA TYPHIMURIUM, Strain/Indicator: TA1535, Metabolic Activation: NONE, Method: PREINCUBATION) “inactive; negative”; (Test System: AMES SALMONELLA TYPHIMURIUM, Strain/Indicator: TA1535, Metabolic Activation: RAT, LIVER, S-9, AROCLOR 1254 (10 OR 30%), Method: PREINCUBATION) “inactive; negative”.

As to `CCO[Si](C)(OCC)OCC`, the mutagenic call reads like this: under setting [1], “inactive; negative”; (Test System: AMES SALMONELLA TYPHIMURIUM, Strain/Indicator: TA98, Metabolic Activation: RAT LIVER S-9, AROCLOR 1254, Method: STANDARD PLATE) “inactive; negative”; under setting [2], “inactive; negative”; (Test System: AMES SALMONELLA TYPHIMURIUM, Strain/Indicator: TA100, Metabolic Activation: RAT LIVER S-9, AROCLOR 1254, Method: STANDARD PLATE) “inactive; negative”; (Test System: AMES SALMONELLA TYPHIMURIUM, Strain/Indicator: TA1535, Metabolic Activation: NONE, Method: STANDARD PLATE) “inactive; negative”; (Test System: AMES SALMONELLA TYPHIMURIUM, Strain/Indicator: TA1535, Metabolic Activation: RAT LIVER S-9, AROCLOR 1254, Method: STANDARD PLATE) “inactive; negative”. Moreover, the mutagenic call reads like this: (Test System: AMES SALMONELLA TYPHIMURIUM, Strain/Indicator: TA1537, Metabolic Activation: NONE, Method: STANDARD PLATE) “inactive; negative”; (Test System: AMES SALMONELLA TYPHIMURIUM, Strain/Indicator: TA1537, Metabolic Activation: RAT LIVER S-9, AROCLOR 1254, Method: STANDARD PLATE) “inactive; negative”; (Test System: AMES SALMONELLA TYPHIMURIUM, Strain/Indicator: TA1538, Metabolic Activation: NONE, Method: STANDARD PLATE) “inactive; negative”; (Test System: AMES SALMONELLA TYPHIMURIUM, Strain/Indicator: TA1538, Metabolic Activation: RAT LIVER S-9, AROCLOR 1254, Method: STANDARD PLATE) “inactive; negative”; (Test System: E. COLI, Strain/Indicator: P3078 POLA, Metabolic Activation: NONE, Method: SPOT TEST) “inactive; negative”; (Test System: E. COLI, Strain/Indicator: P3078 POLA, Metabolic Activation: RAT LIVER S-9, AROCLOR 1254, Method: SPOT TEST) “inactive; negative”. For the same molecule, the mutagenic call runs as follows: (Test System: E. COLI, Strain/Indicator: W3110, Metabolic Activation: NONE, Method: SPOT TEST) “inactive; negative”; (Test System: E. COLI, Strain/Indicator: W3110, Metabolic Activation: RAT LIVER S-9, AROCLOR 1254, Method: SPOT TEST) “inactive; negative”; (Test System: MOUSE LYMPHOMA, Strain/Indicator: L5178Y (TK+/TK-), Metabolic Activation: NONE, Method: SUSPENSION/PLATE) “inactive; negative”; (Test System: MOUSE LYMPHOMA, Strain/Indicator: L5178Y (TK+/TK-), Metabolic Activation: RAT, LIVER, S-9, Method: SUSPENSION/PLATE) “inactive; negative”.

Regarding `Cc1c2ccccc2c(CBr)c2ccccc12`, the mutagenic call was “active; positive” under setting [1] and “inactive; negative” under setting [2].
